ChEMBL document CHEMBL1201862, “PubChem BioAssay data set” (2004)
Active and inactive are the calls of the source.

Tests used:
cells = type: functional, cell-based; conditions: INS-1E
[1] = IC50 of insulin release inhibition, rat insulinoma INS-1E line, 5 mM glucose, cell-based (AID 1117331); type: functional
[2] = glucagon-like peptide-1 release potency in STC-1, concentration-response, half-maximal inhibitory concentration in the STC-1 line (AID 1117345); type: functional, cell-based
[3] = microbe, parasite or virus in culture; type: functional; conditions: Mycobacterium tuberculosis
[4] = Potency on glucagon-like peptide 1 release, dose-response in NCI-H716 cell line, half maximal inhibitory concentration (AID 1117344); type: functional, cell-based
[5] = BioA aminotransferase inhibition, coupled fluorescent readout – biochemical, coupled fluorescence displacement, 20-point, dry powder, dose response (AID 743357); type: functional
[6] = viability loss in HepG2 liver cells – cell-based, luminescence, dry powder, set 9, cytotoxicity control, dose response (AID 743358); type: functional
Kallikrein-7 = Kallikrein-7 (Homo sapiens, UniProt P49862); assay: Fluorescence Intensity-based biochemical primary high throughput dose response assay to identify activators of kallikrein-7 (K7) zymogen.
Kallikrein-7, sequence (P49862 whole entry): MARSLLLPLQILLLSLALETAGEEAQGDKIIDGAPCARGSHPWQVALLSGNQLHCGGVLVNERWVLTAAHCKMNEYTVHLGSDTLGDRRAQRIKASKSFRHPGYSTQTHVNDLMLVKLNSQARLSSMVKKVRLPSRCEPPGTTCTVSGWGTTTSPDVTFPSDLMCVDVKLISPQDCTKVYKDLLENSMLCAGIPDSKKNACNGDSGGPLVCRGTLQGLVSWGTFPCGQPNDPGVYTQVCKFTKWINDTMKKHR

[7] = HCT116 cell viability decrease, GSK3B pretreatment – CellTiter-Glo, IC50, dose response (AID 1117339); type: functional; conditions: HCT-116
[8] = target: T1, Alkaline phosphatase, tissue-nonspecific isozyme (Homo sapiens, UniProt P05186); assay: TNAP enzyme inhibition by screening hits, dose response, selectivity assay for mouse IAP inhibitor project, biochemical, human TNAP, uHTS hits (AID 488906); type: functional
T1 sequence (P05186 whole entry): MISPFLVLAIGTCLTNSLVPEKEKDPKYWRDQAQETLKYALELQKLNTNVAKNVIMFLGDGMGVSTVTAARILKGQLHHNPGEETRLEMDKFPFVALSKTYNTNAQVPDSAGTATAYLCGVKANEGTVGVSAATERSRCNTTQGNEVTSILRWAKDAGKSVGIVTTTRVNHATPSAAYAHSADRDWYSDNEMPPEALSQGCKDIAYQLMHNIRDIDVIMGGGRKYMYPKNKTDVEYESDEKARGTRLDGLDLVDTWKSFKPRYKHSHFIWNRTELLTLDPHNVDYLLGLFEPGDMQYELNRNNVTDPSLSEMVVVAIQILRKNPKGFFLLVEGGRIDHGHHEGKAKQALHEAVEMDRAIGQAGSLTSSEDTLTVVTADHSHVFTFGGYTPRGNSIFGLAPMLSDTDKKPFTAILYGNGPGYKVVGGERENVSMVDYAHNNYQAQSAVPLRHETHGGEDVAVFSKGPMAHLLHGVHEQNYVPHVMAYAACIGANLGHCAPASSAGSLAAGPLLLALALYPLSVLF

[9] = Reduced DLD-1 viability, concentration-response, CellTiter-Glo luminescence (AID 1117352); type: functional
Cytochrome P450 2D6 = Cytochrome P450 2D6 (Homo sapiens, UniProt P10635);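 further: CYP2D6 member of a cytochrome P450 panel assay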
Cytochrome P450 2D6, sequence (P10635 whole entry): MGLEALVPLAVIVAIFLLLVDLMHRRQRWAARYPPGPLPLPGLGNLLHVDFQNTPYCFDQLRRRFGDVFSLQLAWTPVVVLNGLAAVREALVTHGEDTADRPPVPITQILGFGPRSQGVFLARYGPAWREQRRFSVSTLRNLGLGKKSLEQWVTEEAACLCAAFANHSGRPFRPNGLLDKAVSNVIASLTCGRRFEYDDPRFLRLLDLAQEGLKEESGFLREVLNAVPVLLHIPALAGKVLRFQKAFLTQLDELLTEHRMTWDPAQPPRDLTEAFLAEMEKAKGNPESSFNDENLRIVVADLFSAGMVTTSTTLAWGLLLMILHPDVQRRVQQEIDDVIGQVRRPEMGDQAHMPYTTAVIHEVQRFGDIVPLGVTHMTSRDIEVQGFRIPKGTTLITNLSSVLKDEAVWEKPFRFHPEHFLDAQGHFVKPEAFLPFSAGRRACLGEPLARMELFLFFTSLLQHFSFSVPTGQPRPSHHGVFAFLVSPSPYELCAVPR

[10] = RKO cell viability reduction, dose response, CellTiter-Glo luminescence (AID 1117322); type: functional
[11] = target: Intestinal-type alkaline phosphatase (Mus musculus, UniProt P24822); assay: PubChem AID 488785; type: functional
Intestinal-type alkaline phosphatase (Mus musculus, UniProt P24822), sequence (P24822 whole entry): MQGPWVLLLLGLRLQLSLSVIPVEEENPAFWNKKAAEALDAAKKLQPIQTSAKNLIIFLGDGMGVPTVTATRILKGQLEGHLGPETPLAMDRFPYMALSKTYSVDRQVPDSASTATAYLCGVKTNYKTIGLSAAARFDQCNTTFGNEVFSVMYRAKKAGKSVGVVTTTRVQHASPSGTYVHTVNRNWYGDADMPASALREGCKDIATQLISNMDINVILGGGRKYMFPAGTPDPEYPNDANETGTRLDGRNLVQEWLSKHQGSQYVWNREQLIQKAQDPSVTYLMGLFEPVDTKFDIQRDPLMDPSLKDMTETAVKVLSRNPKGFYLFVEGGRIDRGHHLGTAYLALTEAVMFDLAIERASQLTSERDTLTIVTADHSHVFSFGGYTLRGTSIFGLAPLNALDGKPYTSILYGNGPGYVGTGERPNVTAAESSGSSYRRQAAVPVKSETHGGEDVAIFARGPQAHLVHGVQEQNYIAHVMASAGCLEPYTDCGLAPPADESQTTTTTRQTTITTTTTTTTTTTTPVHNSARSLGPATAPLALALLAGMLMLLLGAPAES

[12] = CellTiter-Glo luminescence survival assay, SW480 colon tumor line, concentration-response curve, half-maximal inhibitory concentration (AID 1117338); type: functional
[13] = cytotoxicity toward Colo320 cells – cell-based, CellTiter-Glo luminescence, IC50, dose response (AID 1117334); type: functional; conditions: COLO 320
[14] = target: Lysine-specific demethylase 4C (Homo sapiens, UniProt Q9H3R0); assay: inhibition of JMJD2C H3K9me3 demethylation – biochemical, DELFIA europium, cherry-picked samples, dose response (AID 488835); type: functional
Lysine-specific demethylase 4C, sequence (Q9H3R0 whole entry): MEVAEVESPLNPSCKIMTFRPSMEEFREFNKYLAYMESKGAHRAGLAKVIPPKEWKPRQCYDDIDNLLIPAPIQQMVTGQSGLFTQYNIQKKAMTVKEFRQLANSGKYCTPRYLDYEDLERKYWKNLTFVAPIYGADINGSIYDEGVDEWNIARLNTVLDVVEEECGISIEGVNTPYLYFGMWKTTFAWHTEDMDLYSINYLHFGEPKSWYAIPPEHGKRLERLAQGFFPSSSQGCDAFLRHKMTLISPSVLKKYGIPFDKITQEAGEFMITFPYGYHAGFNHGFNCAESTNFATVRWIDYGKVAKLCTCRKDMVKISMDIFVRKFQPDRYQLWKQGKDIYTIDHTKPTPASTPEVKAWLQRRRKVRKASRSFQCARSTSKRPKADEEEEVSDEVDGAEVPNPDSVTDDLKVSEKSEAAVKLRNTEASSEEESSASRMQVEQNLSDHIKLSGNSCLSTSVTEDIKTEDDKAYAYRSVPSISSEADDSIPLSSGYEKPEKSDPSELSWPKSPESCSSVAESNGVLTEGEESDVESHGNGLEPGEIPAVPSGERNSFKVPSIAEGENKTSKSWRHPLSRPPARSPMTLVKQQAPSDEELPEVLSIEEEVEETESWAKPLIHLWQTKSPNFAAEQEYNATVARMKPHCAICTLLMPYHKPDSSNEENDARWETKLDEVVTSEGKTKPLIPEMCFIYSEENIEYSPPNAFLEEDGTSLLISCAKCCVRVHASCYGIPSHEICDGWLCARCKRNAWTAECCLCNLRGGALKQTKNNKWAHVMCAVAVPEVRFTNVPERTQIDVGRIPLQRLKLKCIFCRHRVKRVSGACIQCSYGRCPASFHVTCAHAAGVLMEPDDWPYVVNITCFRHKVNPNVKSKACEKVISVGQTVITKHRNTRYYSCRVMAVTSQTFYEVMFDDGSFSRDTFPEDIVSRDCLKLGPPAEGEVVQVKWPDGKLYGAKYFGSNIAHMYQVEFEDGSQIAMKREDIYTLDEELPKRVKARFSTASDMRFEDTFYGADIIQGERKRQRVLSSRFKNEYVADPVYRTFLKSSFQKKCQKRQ

[15] = cytotoxicity toward HT-29 cells – cell-based, CellTiter-Glo luminescence, IC50, dose response (AID 1117330); type: functional
Cytochrome P450 2C19 = Cytochrome P450 2C19 (Homo sapiens, UniProt P33261); assay: Cytochrome panel assay with activity outcomes. Panel member name: p450-cyp2c19 Compounds with AC50 equal or less than 10 uM are considered active; type: functional; conditions: read-out: AC50
Cytochrome P450 2C19, sequence (P33261 whole entry): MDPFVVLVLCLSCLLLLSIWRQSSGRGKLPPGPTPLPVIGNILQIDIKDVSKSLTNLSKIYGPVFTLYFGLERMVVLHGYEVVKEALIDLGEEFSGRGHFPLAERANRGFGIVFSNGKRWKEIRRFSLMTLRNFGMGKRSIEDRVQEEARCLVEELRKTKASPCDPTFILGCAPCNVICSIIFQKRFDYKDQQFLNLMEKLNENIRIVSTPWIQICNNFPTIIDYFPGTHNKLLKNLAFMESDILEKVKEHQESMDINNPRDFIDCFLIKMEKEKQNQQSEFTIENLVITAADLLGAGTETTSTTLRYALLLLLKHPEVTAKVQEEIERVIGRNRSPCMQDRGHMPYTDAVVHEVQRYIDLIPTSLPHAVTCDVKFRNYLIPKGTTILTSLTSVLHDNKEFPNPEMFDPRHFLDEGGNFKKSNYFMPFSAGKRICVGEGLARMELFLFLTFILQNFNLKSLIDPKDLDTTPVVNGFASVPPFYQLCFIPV

[16] = target: Intestinal-type alkaline phosphatase (Homo sapiens, UniProt P09923); assay: inhibition of human intestinal alkaline phosphatase – biochemical, dose response (AID 488876); type: functional
Intestinal-type alkaline phosphatase (Homo sapiens, UniProt P09923), sequence (P09923 whole entry): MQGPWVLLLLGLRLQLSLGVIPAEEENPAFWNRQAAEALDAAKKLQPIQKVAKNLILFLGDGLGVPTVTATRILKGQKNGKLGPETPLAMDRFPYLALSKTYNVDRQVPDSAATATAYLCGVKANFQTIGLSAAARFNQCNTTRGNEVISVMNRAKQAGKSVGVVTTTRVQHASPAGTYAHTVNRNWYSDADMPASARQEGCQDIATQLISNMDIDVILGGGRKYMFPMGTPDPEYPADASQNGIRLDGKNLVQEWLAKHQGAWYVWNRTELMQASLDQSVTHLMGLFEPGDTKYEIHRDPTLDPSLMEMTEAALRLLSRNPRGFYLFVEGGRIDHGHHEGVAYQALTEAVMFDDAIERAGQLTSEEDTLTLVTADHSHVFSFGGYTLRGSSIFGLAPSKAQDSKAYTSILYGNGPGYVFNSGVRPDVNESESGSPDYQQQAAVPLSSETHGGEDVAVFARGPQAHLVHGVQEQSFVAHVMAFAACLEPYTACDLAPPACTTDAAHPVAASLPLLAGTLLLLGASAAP

[17] = cytotoxicity toward HCT116 cells – cell-based, CellTiter-Glo luminescence, IC50, dose response (AID 1117332); type: functional; conditions: HCT-116
[18] = SNU-C1 cell viability reduction, dose response, CellTiter-Glo luminescence (AID 1117323); type: functional, cell-based
[19] = toxicity to human HepG2 hepatoma cells – cell-based, plate reader, dry powder samples, cytotoxicity control, dose response (AID 1159569); type: functional;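 further: inhibitor potency with signal falling toward the positive control level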
[20] = growth inhibition of yeast DHODH-expressing 3D7 parasites – SYBR Green, dry powder samples, dose response (AID 1159570); type: functional, cell-based;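 further: parasite growth measured after 72 hours of compound exposure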
[21] = Dd2 malaria parasite growth inhibition potency – SYBR Green, dry powder samples, dose response (AID 1159566); type: functional, cell-based;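 further: potency for growth inhibition with lower SYBR green DNA signal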
[22] = toxicity to human hepatoma HepG2 cells – cell-based, cherry-picked samples, cytotoxicity control, dose response (AID 1159577); type: functional
[23] = P. falciparum Dd2 growth inhibitors, dose response, SYBR Green, cherry-picked samples (AID 1159567); type: functional, cell-based
[24] = growth inhibition of PfATP4-mutant resistant parasites – NITD609-resistant line, SYBR Green, dry powder, dose response (AID 1159571); type: functional, cell-based;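 further: parasites synchronized at ring stage by sorbitol before testing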

In the case of `Clc1ccc2c(c1)CCc1cccnc1C2=C1CCNCC1` [DESLORATADINE], the IC50 (cells) is reported as > 33.3 µM (inactive), the IC50 [1] is reported as 7.11 µM (inactive) and the IC50 [2] is reported as > 40 µM (inactive). For the same molecule, the CC50 [3] was 32.9 µM (active) and the IC50 [4] was > 40 µM (inactive).
With `CC(C)NC(=O)N1CC[C@@H]2[C@@H](CO)N(C)c3ccc(-c4cccc(F)c4)cc3[C@@H]21` the AC50 [5] was 11.8 µM (active) and the AC50 [6] was > 52 µM (inactive).
In the case of `CCN1CCN(C(=O)COc2ccc3c(c2)C(=O)CC2(CCN(C(C)=O)CC2)O3)CC1`, the EC50 (Kallikrein-7) is reported as > 2.58 µM (active).
In the case of `N#CC(C#N)=Cc1ccc(O)c(O)c1` [TYRPHOSTIN 23], the IC50 [7] is reported as > 20 µM (inactive), the IC50 [8] is reported as 9.97 µM (active) and the IC50 [9] is reported as > 20 µM (inactive). For the same molecule, the AC50 (Cytochrome P450 2D6) was 20 µM (inconclusive), the IC50 [10] was 3.78 µM (active) and the IC50 [11] was 4.22 µM (active). For the same molecule, the IC50 [12] was > 20 µM (inactive), the IC50 [13] was 6.74 µM (inactive) and the AC50 [14] was 10.8 µM (active). For the same molecule, the IC50 [15] was > 20 µM (inactive), the AC50 (Cytochrome P450 2C19) was 15.8 µM (inconclusive) and the IC50 [16] was > 100 µM (inactive). The IC50 [17] was > 20 µM (inactive) and the IC50 [18] was > 20 µM (inactive).
For `C[C@H]1CN([C@@H](C)CO)C(=O)c2c(c3ccccc3n2C)-c2ccccc2CO[C@H]1CN(C)Cc1ccc(-c2ccccc2)cc1`, the AC50 [19] was 28.9 µM (active), the AC50 [20] was 3.14 µM (active) and the AC50 [21] was 1.54 µM (active). For the same molecule, the AC50 [22] was > 39 µM (inactive), the AC50 [23] was 2.64 µM (active) and the AC50 [24] was 2.1 µM (active).
